These results are taken from patent publication US20080161366A1, “AMINOALKYL SUBSTITUTED ARYL SULFAMIDE DERIVATIVES AND METHODS OF THEIR USE” (Wyeth, priority 2006, published 2008).

Series [1] in a line: Rat liver microsomal stability assay. In kind it is in vitro ADME. Conditions: rat liver microsomes, 37° C., NADPH; for half-life at 1 µM: pH 7.4, read-out: RLM stability t1/2.
For series [2], the target named is Dopamine Transporter (hDAT) (Homo sapiens, UniProt Q01959). Kind of series: Dopamine transporter (hDAT) membrane binding assay, [3H]-WIN 35,428.
Chain of Dopamine Transporter (hDAT) (Q01959 whole entry): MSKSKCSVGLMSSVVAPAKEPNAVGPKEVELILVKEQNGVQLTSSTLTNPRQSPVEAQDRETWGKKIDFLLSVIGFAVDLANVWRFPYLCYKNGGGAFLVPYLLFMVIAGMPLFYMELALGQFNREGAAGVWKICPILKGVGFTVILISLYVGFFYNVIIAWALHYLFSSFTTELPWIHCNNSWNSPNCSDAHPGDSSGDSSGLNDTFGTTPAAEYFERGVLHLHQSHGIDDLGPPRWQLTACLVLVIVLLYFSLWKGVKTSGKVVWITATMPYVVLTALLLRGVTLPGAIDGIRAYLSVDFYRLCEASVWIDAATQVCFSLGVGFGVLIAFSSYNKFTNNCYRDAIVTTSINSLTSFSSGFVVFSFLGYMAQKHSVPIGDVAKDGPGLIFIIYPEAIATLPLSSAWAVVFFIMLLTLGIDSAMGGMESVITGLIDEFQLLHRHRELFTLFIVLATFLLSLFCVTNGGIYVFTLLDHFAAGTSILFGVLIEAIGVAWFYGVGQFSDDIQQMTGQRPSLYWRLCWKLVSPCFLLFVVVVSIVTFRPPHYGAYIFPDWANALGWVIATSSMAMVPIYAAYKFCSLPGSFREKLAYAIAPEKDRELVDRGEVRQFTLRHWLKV
Series [3] concerns the target T1, human norepinephrine transporter (hNET) (Homo sapiens, UniProt P23975). Briefly: hNET uptake, Protocol B: cell based norepinephrine reuptake assay using recombinant hNET (MDCK-Net6 cells).
The target in series [4] is T1, human norepinephrine transporter (hNET). Briefly: hNET uptake, Protocol A: inhibition of [3H] NE uptake into cloned human NE transporters (MDCK cells). Conditions: for IC50: MDCK cells expressing hNET, [3H] NE 16 nM; for inhibition at 2 µM: MDCK, read-out: NE uptake (Protocol A) % inh. @ 2 uM. Set-up: expressed in transfected cells; host or cells: MDCK-Net6 cells. In kind it is cell-based. As to the method:
hNET Assay Procedure Protocol A: Inhibition of [^3H] NE Uptake into Cloned Human NE Transporters (MDCK Cells) (“hNET uptake”)
[^3H] […] Cells were seeded at 300,000/T75 flask, and split twice weekly.
All uptake experiments were performed in 96-well plates (Falcon Optilux, cat #353947) in a total volume of 250 μl/well. MDCK cells were plated at 50,000 cells/well. […] 25 μl of each test compound was subsequently added to plates in triplicate and incubated at 37° C. for 5 minutes. All test compounds were dissolved in 100% DMSO and diluted in 4% DMSO/H2O, and assayed using a 7-point dose response curve (1 nM-10 μM). Next, 25 μl of [^3H] NE (74.9 Ci/mmol, Perkin Elmer, Boston, Mass.) was added to all wells and incubated at 37° C. for an additional 5 minutes. Non-specific uptake was defined by 20 μM desipramine. The final concentrations of [^3H] NE was 16 nM, respectively. The reaction was terminated by aspiration and washed with ice cold 50 mM Tris (pH 7.4). The plates were left to air dry for roughly 30 min, and MDCK cells were lysed by the addition of 25 μl of 0.25 M NaOH. 100 μl of Microscint-20 were added to each well (Packard, Perkin Elmer, Boston, Mass.), and the plates were counted using a TopCount (Perkin Elmer, Downer's Grove, Ill.) liquid scintillation counter.
% Inhibition of uptake=((mean cpm control wells−each cpm drug well)/(mean cpm control wells−non-specific wells)×100.
IC50 values were calculated using a Prism® nonlinear regression program where % inhibition is plotted versus concentration of inhibitor.

Where [5] appears, read: hNET Function IC50 (nM), protocol not stated.
[6] abbreviates: NE uptake (Protocol B) IC50 (nM), MDCK-Net6 cells, 3H-NE 16 nM.

Counter-ions that a name gives are not always drawn.

T1 sequence (P23975 whole entry): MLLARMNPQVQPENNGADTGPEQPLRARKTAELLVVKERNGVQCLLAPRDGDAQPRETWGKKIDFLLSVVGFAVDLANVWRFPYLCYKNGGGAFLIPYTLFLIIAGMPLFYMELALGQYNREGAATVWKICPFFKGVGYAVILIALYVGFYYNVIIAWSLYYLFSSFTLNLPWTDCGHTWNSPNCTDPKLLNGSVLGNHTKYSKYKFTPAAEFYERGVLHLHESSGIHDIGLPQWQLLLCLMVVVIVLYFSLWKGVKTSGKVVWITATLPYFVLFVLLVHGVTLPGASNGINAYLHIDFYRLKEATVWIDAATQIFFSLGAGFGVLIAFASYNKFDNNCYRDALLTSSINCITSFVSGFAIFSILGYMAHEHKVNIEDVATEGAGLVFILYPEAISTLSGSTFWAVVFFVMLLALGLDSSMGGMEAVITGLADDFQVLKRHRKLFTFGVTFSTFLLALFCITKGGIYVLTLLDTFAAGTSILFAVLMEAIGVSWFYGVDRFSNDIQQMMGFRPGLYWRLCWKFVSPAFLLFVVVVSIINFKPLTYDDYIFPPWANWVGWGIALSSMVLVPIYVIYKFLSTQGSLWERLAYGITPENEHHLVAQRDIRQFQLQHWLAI

Consider `CNCCCN1c2ccccc2N(c2c(F)cccc2F)S1(=O)=O`, for which the “RLM stability t1/2” value in series [1] was 2.0 min.
`CNCCCCN1c2ccccc2N(c2ccc(F)cc2F)S1(=O)=O`: the half-life at 1 µM in series [1] turned out to be 11 min. The half-inhibitory concentration (IC50) is 449 nM in series [2] and 8.4 nM in series [3] (setting [5]).
In turn, `NCCCN1c2ccccc2N(c2ccc(Cl)cc2)S1(=O)=O` [Example 2, 3-[3-(4-chlorophenyl)-2,2-dioxido-2,1,3-benzothiadiazol-1(3H)-yl]propan-1-amine] returned an IC50 in series [4] of 2530 nM.
As for `O=S1(=O)N(CCCNC2CC2)c2ccccc2N1c1ccc(Cl)cc1` [Example 3, N-{3-[3-(4-chlorophenyl)-2,2-dioxido-2,1,3-benzothiadiazol-1(3H)-yl]propyl}cyclopropanamine], the IC50 in series [4] was determined as 4220 nM.
Regarding `CCNCCCN1c2ccccc2N(c2ccc(Cl)cc2)S1(=O)=O` [Example 4, 3-[3-(4-chlorophenyl)-2,2-dioxido-2,1,3-benzothiadiazol-1(3H)-yl]-N-ethylpropan-1-amine], the inhibition at 2 µM in series [4] stood at 37%.
In series [4], `CNCCCN1c2ccccc2N(c2cccc(F)c2C)S1(=O)=O` [Example 10, 3-[3-(3-fluoro-2-methylphenyl)-2,2-dioxido-2,1,3-benzothiadiazol-1(3H)-yl]-N-methylpropan-1-amine] came in with an IC50 of 40.2 nM.
Regarding `NCCCCN1c2ccccc2N(c2ccc(Cl)cc2)S1(=O)=O` [Example 19, 4-[3-(4-chlorophenyl)-2,2-dioxido-2,1,3-benzothiadiazol-1(3H)-yl]butan-1-amine], half-maximal inhibition in series [4] (IC50) was put at 1130 nM.
Turning to `CNCCCCN1c2ccccc2N(c2ccc(Cl)cc2)S1(=O)=O` [Example 20, 4-[3-(4-chlorophenyl)-2,2-dioxido-2,1,3-benzothiadiazol-1(3H)-yl]-N-methylbutan-1-amine], the IC50 in series [4] turned out to be 478 nM.
Still for that read-out and setting: the figure for `CN(C)CCCCN1c2ccccc2N(c2ccc(Cl)cc2)S1(=O)=O` [Example 21, 4-[3-(4-chlorophenyl)-2,2-dioxido-2,1,3-benzothiadiazol-1(3H)-yl]-N,N-dimethylbutan-1-amine] is 5890 nM.
Regarding `CCCCNCCCCN1c2ccccc2N(c2ccc(Cl)cc2)S1(=O)=O` [Example 22, n-butyl-4-[3-(4-chlorophenyl)-2,2-dioxido-2,1,3-benzothiadiazol-1(3H)-yl]butan-1-amine], the inhibition at 2 µM in series [4] stood at 27%.
Still for that read-out and setting: the result for `CCN(C)CCCCN1c2ccccc2N(c2ccc(Cl)cc2)S1(=O)=O` [Example 23, 4-[3-(4-chlorophenyl)-2,2-dioxido-2,1,3-benzothiadiazol-1(3H)-yl]-ethyl-N-methylbutan-1-amine] reads 28%; that for `NCCN1c2ccccc2N(c2ccc(Cl)cc2)S1(=O)=O` [Example 54, 2-[3-(4-chlorophenyl)-2,2-dioxido-2,1,3-benzothiadiazol-1(3H)-yl]ethanamine], 3%; that for `CNCCN1c2ccccc2N(c2ccc(Cl)cc2)S1(=O)=O` [Example 55, 2-[3-(4-chlorophenyl)-2,2-dioxido-2,1,3-benzothiadiazol-1(3H)-yl]-N-methylethanamine], 15%.
`CCNCCCCN1c2ccccc2N(c2ccc(F)cc2F)S1(=O)=O` [Example 121, 4-[3-(2,4-difluorophenyl)-2,2-dioxido-2,1,3-benzothiadiazol-1(3H)-yl]-N-ethylbutan-1-amine hydrochloride]: the IC50 in series [3] (setting [6]) was determined as 1500 nM.
The same measure, in the same setting: the figure for `CCNCCCCN1c2ccccc2N(c2c(F)cccc2F)S1(=O)=O` [Example 122, 4-[3-(2,6-difluorophenyl)-2,2-dioxido-2,1,3-benzothiadiazol-1(3H)-yl]-N-ethylbutan-1-amine hydrochloride] is 48 nM.
Same read-out and setting: the figure for `CC(C)NCCCCN1c2ccccc2N(c2c(F)cccc2F)S1(=O)=O` [Example 123, 4-[3-(2,6-difluorophenyl)-2,2-dioxido-2,1,3-benzothiadiazol-1(3H)-yl]-N-isopropylbutan-1-amine hydrochloride] is 1170 nM.
With `O=S1(=O)N(CCCCNC2CCC2)c2ccccc2N1c1c(F)cccc1F` [Example 124, N-{4-[3-(2,6-difluorophenyl)-2,2-dioxido-2,1,3-benzothiadiazol-1(3H)-yl]butyl}cyclobutanamine hydrochloride], the IC50 in series [3] (setting [6]) was 132 nM.
Same read-out and setting: the result for `O=S1(=O)N(CCCCNC2CCCCC2)c2ccccc2N1c1c(F)cccc1F` [Example 125, N-{4-[3-(2,6-difluorophenyl)-2,2-dioxido-2,1,3-benzothiadiazol-1(3-yl]butyl}cyclohexanamine hydrochloride] reads 440 nM; that for `CCNCCCN1c2ccccc2N(c2c(F)cccc2F)S1(=O)=O` [Example 126, 3-[3-(2,6-difluorophenyl)-2,2-dioxido-2,1,3-benzothiadiazol-1(3H)-yl]-N-ethylpropan-1-amine hydrochloride], 15 nM.
Same read-out and setting: the figure for `CC(C)NCCCN1c2ccccc2N(c2c(F)cccc2F)S1(=O)=O` [Example 127, 3-[3-(2,6-difluorophenyl)-2,2-dioxido-2,1,3-benzothiadiazol-1(3H)-yl]-N-isopropylpropan-1-amine hydrochloride] is 148 nM.
Same read-out and setting: the result for `O=S1(=O)N(CCCNC2CCC2)c2ccccc2N1c1c(F)cccc1F` [Example 128, N-{3-[3-(2,6-difluorophenyl)-2,2-dioxido-2,1,3-benzothiadiazol-1(3H)-yl]propyl}cyclobutanamine hydrochloride] reads 222 nM; that for `O=S1(=O)N(CCCNC2CCCC2)c2ccccc2N1c1c(F)cccc1F` [Example 129, N-{3-[3-(2,6-difluorophenyl)-2,2-dioxido-2,1,3-benzothiadiazol-1(3H)-yl]propyl}cyclopentanamine hydrochloride], 195 nM.
In the case of `O=S1(=O)N(CCCNC2CCCCC2)c2ccccc2N1c1c(F)cccc1F` [Example 130, N-{3-[3-(2,6-difluorophenyl)-2,2-dioxido-2,1,3-benzothiadiazol-1(3H)-yl]propyl}cyclohexanamine hydrochloride], the IC50 in series [3] (setting [6]) came out at 224 nM.
The same measure, in the same setting: the result for `O=S1(=O)N(CCCNC2CCNCC2)c2ccccc2N1c1ccccc1F` [Example 131, N-{3-[3-(2-fluorophenyl)-2,2-dioxido-2,1,3-benzothiadiazol-1(3H)-yl]propyl}piperidin-4-amine dihydrochloride] reads 365 nM.
Same read-out and setting: the figure for `O=S1(=O)N(CCCNC2CCNCC2)c2ccccc2N1c1ccccc1` [Example 132, N-[3-(2,2-dioxido-3-phenyl-2,1,3-benzothiadiazol-1(3H)-yl)propyl]piperidin-4-amine dihydrochloride] is 267 nM; for `O=S1(=O)N(CCNC2CCNCC2)c2ccccc2N1c1ccccc1F` [Example 133, N-{3-[3-(2-fluorophenyl)-2,2-dioxido-2,1,3-benzothiadiazol-1(3H)-yl]ethyl}piperidin-4-amine dihydrochloride] it is 45 nM; for `O=S1(=O)N(CCNC2CCNCC2)c2ccccc2N1c1ccccc1` [Example 134, N-[2-(2,2-dioxido-3-phenyl-2,1,3-benzothiadiazol-1(3H)-yl)ethyl]piperidin-4-amine dihydrochloride] it is 67 nM.
On the same count and under the same terms, the figure for `O=S1(=O)N(CCCNCCO)c2ccccc2N1c1ccccc1F` [Example 135, 2-({3-[3-(2-fluorophenyl)-2,2-dioxido-2,1,3-benzothiadiazol-1(3H)-yl]propyl}amino)ethanol] is 43 nM.
Turning to `CNCCCN1c2ccccc2N(c2ccccc2)S1(=O)=O` [drawing 157], the half-life at 1 µM in series [1] is 2 min. Besides, the IC50 in series [2] worked out at 598 nM; in series [3] (setting [5]) it was 2.6 nM.
For `CNCCCCN1c2ccccc2N(c2ccccc2)S1(=O)=O` [drawing 158], in that order: 2 min, 211 nM and 0.3 nM.
For `CNCCCCN1c2ccccc2N(c2c(F)cccc2F)S1(=O)=O` [drawing 162], in that order: 1 min, 9330 nM and 2.3 nM.
Consider `CNCCCN1c2ccccc2N(c2ccc(F)c(F)c2)S1(=O)=O` [drawing 163], for which the half-life at 1 µM in series [1] worked out at 18 min. Moreover, the IC50 came out at 122 nM in series [2] and 19.8 nM in series [3] (setting [5]).
Turning to “N-{3-[3-(2-fluorophenyl)-2,2-dioxido-2,1,3-benzothiadiazol-1(3H)-yl]butyl}cyclopropanamine [Example 99]”, in series [3] (read-out: NE uptake (Protocol B) IC50, MDCK-Net6 cells, 3H-NE 16 nM), the half-inhibitory concentration (IC50) stood at 22 nM.

Usually IC50 stands for the concentration at which inhibition is half-maximal.
